Experimental findings from patent US11274100B2, “EP300/CREBBP inhibitor” (Daiichi Sankyo Company, Limited, priority 2017, dated 2022) are described below.

What is called IC50 is the concentration needed to halve the response being measured. The term GI50 denotes the concentration giving 50% growth inhibition.

Some results are limits rather than exact numbers.

In one assay the test system is H3K27Ac. Kind of assay: Intracellular H3K27Ac inhibitory activity in LK2 cells (Test Example 2). Particulars: Homo sapiens, LK-2, cultured with compound for 3 hours, read-out: Test Example 2 H3K27Ac Inhibition (LK2) IC50. Format: cell-based. In a few lines: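 Human squamous lung cancer LK2 cells (40000/well) cultured overnight at 37 °C, 5% CO2 before treatment. After paraformaldehyde fixation, peroxide quench and blocking, H3K27 acetylation detected with anti-acetyl-H3K27 rabbit mAb (4 °C overnight) and HRP secondary; chemiluminescent read-out.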

Another assay deals with LK2 cells. Kind of assay: Cell growth inhibitory activity, LK2 cells (Test Example 3). Format: cell-based. Particulars: Homo sapiens, LK-2, 72 h, cultured for 3 days, CellTiter-Glo. The method in brief:
(§1)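 LK2 and TE-8 […] cells in RPMI 1640 with 10% FBS exposed to 10-point 4-fold dilutions (10 mM to 38 nM, stock series) for 3 days. ATP luminescence (CellTiter-Glo 2.0) at day 0 and day 3 gave survival as (T3−C0)/(C3−C0)×100; GI50 from semilog plot.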
A general note: Cellular ATP, detected with luciferase, serves as a proxy for viable cell number.

The next assay has as its target EP300 (Homo sapiens, UniProt Q09472). Kind of assay: Histone acetyltransferase inhibitory activity against EP300 (Test Example 1). Format: biochemical. The conditions noted are these: 50 ng/mL EP300, 2 μM Acetyl-CoA, 100 nM Histone H4(1-25)-GSGSK (Biotin), 28° C. for 1 hour. In a few lines:
(§2)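 Enzyme (50 ng/mL EP300 or 125 ng/mL CREBBP) incubated 1 h at 28° C with 2 μM acetyl-CoA, 100 nM biotinylated histone H4(1-25) peptide and 10 to 0.0006 μM compound in pH 8.0 Tris buffer with 330 nM trichostatin A, 1% DMSO. Reaction stopped with Lys-CoA; acetylation read by TR-FRET (Eu-anti pan-Ac/Sta-ULight) after overnight room-temperature incubation.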

A further assay has as its target CREBBP (Homo sapiens, UniProt Q92793). Kind of assay: Histone acetyltransferase inhibitory activity against CREBBP (Test Example 1). Format: biochemical. The conditions noted are these: 125 ng/mL CREBBP, 2 μM Acetyl-CoA, 100 nM Histone H4(1-25)-GSGSK (Biotin), 28° C. for 1 hour. The method in brief:
as §2

Another assay concerns TE-8 cells. The assay can be described thus: Cell growth inhibitory activity, TE-8 cells (Test Example 3). Format: cell-based. Particulars: Homo sapiens, 72 h, cultured for 3 days, CellTiter-Glo. In a few lines:
as §1

Sequence of EP300 (Q09472 whole entry): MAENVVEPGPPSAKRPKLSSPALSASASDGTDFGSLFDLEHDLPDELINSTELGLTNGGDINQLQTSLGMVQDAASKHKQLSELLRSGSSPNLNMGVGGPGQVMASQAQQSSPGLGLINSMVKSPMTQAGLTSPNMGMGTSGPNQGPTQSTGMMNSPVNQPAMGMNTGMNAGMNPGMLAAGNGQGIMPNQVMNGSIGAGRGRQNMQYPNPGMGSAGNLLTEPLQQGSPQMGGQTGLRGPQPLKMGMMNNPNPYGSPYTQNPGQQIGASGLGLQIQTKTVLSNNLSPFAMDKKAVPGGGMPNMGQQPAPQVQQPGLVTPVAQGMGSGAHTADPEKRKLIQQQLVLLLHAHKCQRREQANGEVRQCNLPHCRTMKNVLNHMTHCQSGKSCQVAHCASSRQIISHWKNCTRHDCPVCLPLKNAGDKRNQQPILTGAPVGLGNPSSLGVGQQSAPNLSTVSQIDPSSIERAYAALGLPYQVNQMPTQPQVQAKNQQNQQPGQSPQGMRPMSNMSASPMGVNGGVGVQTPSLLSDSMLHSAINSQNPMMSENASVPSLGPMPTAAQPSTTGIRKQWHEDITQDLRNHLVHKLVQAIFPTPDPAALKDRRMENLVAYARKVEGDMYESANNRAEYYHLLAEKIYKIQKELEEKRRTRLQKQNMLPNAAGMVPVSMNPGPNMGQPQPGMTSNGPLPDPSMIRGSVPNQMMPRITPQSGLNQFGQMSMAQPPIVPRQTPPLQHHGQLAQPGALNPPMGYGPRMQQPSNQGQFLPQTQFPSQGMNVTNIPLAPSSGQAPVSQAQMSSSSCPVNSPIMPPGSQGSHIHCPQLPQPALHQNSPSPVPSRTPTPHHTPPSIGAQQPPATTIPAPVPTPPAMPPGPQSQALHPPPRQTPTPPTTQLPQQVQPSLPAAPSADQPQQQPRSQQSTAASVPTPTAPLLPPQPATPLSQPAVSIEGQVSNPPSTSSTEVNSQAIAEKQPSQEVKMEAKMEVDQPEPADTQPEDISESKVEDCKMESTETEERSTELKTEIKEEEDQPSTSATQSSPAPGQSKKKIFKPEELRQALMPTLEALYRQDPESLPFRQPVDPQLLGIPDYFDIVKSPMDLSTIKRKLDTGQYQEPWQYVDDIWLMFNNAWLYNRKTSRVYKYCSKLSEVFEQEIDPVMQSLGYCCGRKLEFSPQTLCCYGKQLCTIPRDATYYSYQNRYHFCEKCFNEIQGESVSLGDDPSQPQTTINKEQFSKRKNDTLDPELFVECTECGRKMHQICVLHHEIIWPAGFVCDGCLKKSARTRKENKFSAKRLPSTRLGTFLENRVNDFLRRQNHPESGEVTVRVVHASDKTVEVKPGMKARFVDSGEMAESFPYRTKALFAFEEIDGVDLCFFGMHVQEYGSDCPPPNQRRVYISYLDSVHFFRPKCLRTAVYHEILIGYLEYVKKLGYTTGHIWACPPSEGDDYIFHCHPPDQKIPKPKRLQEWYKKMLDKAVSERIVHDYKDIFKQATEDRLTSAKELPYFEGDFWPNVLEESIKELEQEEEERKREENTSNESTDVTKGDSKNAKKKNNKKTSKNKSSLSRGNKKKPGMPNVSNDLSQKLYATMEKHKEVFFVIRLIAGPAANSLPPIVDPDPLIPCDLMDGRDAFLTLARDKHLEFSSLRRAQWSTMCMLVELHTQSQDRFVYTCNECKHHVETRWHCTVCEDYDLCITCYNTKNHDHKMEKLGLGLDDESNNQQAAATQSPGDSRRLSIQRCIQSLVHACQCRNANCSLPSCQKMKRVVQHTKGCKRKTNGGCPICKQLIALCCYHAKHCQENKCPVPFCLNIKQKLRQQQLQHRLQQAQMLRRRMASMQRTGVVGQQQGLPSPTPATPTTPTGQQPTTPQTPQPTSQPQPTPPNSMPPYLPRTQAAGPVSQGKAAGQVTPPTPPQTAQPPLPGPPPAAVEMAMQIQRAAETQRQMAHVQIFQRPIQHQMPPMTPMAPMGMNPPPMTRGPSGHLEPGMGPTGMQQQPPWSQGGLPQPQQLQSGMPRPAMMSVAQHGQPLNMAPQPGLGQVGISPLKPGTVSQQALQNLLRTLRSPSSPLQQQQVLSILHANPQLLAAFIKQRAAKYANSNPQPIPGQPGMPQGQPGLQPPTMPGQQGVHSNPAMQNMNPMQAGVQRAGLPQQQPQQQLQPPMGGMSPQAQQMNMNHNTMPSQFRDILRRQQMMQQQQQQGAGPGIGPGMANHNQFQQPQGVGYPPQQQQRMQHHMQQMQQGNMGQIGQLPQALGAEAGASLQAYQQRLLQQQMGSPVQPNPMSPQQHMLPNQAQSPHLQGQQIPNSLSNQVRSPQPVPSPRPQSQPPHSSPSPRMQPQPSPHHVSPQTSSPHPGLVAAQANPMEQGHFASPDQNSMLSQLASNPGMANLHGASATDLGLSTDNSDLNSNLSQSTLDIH
Sequence of CREBBP (Q92793 whole entry): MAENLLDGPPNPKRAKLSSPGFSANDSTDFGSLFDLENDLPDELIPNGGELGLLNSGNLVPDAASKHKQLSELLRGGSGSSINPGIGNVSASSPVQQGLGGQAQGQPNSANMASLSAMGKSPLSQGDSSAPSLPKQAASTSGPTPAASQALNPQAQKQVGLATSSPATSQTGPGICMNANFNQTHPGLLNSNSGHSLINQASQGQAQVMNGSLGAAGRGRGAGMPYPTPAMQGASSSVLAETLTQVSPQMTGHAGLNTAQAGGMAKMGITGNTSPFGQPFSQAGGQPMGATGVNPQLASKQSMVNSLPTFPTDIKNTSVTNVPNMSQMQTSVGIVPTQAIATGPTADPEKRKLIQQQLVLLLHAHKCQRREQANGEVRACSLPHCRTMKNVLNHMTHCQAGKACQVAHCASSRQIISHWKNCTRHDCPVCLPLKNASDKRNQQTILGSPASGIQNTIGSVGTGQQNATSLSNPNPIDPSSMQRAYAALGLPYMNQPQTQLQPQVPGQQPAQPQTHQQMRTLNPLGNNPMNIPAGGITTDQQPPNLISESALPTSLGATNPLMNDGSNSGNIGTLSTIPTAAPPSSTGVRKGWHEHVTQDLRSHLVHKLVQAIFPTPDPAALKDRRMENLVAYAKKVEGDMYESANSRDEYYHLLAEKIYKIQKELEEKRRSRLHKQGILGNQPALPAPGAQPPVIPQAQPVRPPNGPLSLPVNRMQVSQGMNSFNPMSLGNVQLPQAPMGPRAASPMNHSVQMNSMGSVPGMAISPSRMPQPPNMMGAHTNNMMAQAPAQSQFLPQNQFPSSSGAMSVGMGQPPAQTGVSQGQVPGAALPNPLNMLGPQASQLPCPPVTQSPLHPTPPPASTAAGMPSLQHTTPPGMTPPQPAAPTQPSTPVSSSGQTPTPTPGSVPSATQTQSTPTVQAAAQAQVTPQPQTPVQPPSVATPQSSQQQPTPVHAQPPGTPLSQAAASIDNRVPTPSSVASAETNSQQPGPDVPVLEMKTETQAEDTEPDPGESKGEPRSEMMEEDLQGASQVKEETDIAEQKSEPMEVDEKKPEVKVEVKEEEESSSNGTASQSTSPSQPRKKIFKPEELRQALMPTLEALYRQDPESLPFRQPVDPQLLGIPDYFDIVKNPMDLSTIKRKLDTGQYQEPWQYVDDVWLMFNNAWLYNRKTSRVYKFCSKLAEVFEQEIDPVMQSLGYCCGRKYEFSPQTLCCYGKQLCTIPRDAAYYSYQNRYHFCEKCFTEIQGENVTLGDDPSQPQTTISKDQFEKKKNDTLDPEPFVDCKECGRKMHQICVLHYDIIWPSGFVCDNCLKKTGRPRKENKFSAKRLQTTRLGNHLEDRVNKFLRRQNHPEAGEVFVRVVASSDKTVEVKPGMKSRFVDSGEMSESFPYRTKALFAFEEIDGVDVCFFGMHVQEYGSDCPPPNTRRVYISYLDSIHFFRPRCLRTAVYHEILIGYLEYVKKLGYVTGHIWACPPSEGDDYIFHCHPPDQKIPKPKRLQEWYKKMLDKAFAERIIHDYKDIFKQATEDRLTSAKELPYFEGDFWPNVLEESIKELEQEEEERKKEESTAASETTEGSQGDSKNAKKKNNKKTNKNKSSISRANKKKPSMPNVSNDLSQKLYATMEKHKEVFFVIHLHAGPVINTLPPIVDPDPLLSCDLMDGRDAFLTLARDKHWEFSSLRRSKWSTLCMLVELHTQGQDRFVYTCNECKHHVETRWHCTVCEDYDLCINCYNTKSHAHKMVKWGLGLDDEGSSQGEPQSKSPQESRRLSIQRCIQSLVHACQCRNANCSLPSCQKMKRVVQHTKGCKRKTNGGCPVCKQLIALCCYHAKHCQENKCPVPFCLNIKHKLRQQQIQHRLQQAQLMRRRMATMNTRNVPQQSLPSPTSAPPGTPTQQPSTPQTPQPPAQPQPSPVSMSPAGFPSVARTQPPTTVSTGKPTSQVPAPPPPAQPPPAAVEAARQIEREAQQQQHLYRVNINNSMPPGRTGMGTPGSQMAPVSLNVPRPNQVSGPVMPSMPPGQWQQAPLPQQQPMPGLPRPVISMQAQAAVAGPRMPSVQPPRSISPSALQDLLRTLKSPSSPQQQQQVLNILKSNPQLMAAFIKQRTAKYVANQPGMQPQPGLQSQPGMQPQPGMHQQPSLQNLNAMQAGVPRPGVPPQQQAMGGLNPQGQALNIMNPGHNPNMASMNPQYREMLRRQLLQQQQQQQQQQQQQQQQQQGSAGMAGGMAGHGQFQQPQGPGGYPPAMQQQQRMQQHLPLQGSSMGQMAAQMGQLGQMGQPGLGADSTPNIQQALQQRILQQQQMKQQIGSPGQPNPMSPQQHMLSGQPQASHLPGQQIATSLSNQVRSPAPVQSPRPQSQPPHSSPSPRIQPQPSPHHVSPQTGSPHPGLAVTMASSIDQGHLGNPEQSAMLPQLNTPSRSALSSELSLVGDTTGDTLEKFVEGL

For the molecule `CC(=O)c1ccc(C2(C(=O)N3C[C@H](F)C[C@@H]3C(=O)Nc3ccc4[nH]ncc4n3)CCCCC2)cc1` [Example 83, (4R)-1-{[1-(4-Acetylphenyl)cyclohexyl]carbonyl}-4-fluoro-N-1H-pyrazolo[4,3-b]pyridin-5-yl-D-prolinamide], the figures for the IC50 in the assay with H3K27Ac, against EP300 and against CREBBP were 19 nM, 33 nM and 61 nM, respectively. Also, the GI50 in the assay with LK2 cells was determined as 203 nM; in the assay on TE-8 cells it was 151 nM.
On to `O=C(Nc1ccc2[nH]ncc2n1)[C@H]1C[C@@H](F)CN1C(=O)C1(c2ccc(OCF)c(F)c2)CCC(F)(F)CC1` [Example 85, (4R)-1-({4,4-Difluoro-1-[3-fluoro-4-(fluoromethoxy)phenyl]cyclohexyl}carbonyl)-4-fluoro-N-1H-pyrazolo[4,3-b]pyridin-5-yl-D-prolinamide], for which the IC50 in the assay with H3K27Ac is 29 nM; at EP300, 31 nM; against CREBBP it was 53 nM. The GI50 in the assay with LK2 cells amounted to 206 nM; with TE-8 cells, 412 nM.
As for `O=C(Nc1ccc2[nH]ncc2n1)[C@H]1C[C@@H](F)CN1C(=O)C1(c2ccc(OCF)c(F)c2)CC(F)(F)C1` [Example 86], the IC50 amounted to 14 nM in the assay on H3K27Ac, 23 nM against EP300 and 40 nM at CREBBP. The GI50 is 86.8 nM in the assay on LK2 cells and 101 nM with TE-8 cells.
Turning to `O=C(Nc1ccc2[nH]ncc2n1)[C@H]1C[C@@H](F)CN1C(=O)C1(c2ccc(OCC(F)(F)F)c(F)c2)CC(F)(F)C1` [Example 87], the IC50 was 73 nM in the assay with H3K27Ac, 38 nM on EP300 and 82 nM on CREBBP. Besides, the figures for the GI50 with LK2 cells and with TE-8 cells were 237 nM and 300 nM, respectively.
For `CCOc1ccc(C2(C(=O)N3C[C@H](F)C[C@@H]3C(=O)Nc3ccc4[nH]ncc4n3)CC(F)(F)C2)cc1F` [Example 88], the IC50 in the assay with H3K27Ac was determined as 53 nM; against EP300 it was 37 nM; against CREBBP it was 80 nM. Also, the GI50 came out at 201 nM in the assay with LK2 cells and 351 nM with TE-8 cells.
`O=C(Nc1ccc2[nH]ncc2n1)[C@H]1C[C@@H](F)CN1C(=O)C1(c2ccc(OC(F)F)c(F)c2)CCC(F)(F)CC1` [Example 89]: the IC50 in the assay with H3K27Ac was found to be 62 nM; against EP300, 38 nM; at CREBBP, 61 nM. The values for the GI50 in the assay on LK2 cells and in the assay with TE-8 cells were 279 nM and 491 nM, respectively.
With `O=C(Nc1ccc2[nH]ncc2n1)[C@H]1C[C@@H](F)CN1C(=O)C1(c2ccc(OC(F)F)cc2)CC(F)(F)C1` [Example 90], the IC50 was 9 nM with H3K27Ac, 4 nM against EP300 and 7 nM on CREBBP. Further, the GI50 with LK2 cells was 73.4 nM; in the assay on TE-8 cells it was 106 nM.
Regarding `[2H]C([2H])([2H])Oc1ccc(C2(C(=O)N3C[C@H](F)C[C@@H]3C(=O)Nc3ccc4[nH]ncc4n3)CCC(F)(F)CC2)cc1F` [Example 91, (4R)-1-[(4,4-Difluoro-1-{3-fluoro-4-[(^2H3)methyloxy]phenyl}cyclohexyl)carbonyl]-4-fluoro-N-1H-pyrazolo[4,3-b]pyridin-5-yl-D-prolinamide], the IC50 in the assay with H3K27Ac was determined as 89 nM; at EP300, 31 nM; at CREBBP, 75 nM. The values for the GI50 in the assay on LK2 cells and in the assay with TE-8 cells were 217 nM and 364 nM, respectively.
Consider `[2H]C([2H])([2H])Oc1ccc(C2(C(=O)N3C[C@H](F)C[C@@H]3C(=O)Nc3ccc4[nH]ncc4n3)CCC(F)(F)CC2)cc1` [Example 92, (4R)-1-[(4,4-Difluoro-1-{4-[(^2H3)methyloxy]phenyl}cyclohexyl)carbonyl]-4-fluoro-N-1H-pyrazolo[4,3-b]pyridin-5-yl-D-prolinamide], for which the IC50 turned out to be 51 nM with H3K27Ac, 22 nM on EP300 and 53 nM against CREBBP. Further, the concentration for 50% growth inhibition (GI50) in the assay on LK2 cells turned out to be 195 nM; in the assay on TE-8 cells, 308 nM.
The matching figures for `COc1cccc(C2(C(=O)N3C[C@H](F)C[C@@H]3C(=O)Nc3ccc4[nH]ncc4n3)CCC(F)(F)CC2)c1` [Example 93, (4R)-1-{[4,4-Difluoro-1-(3-methoxyphenyl)cyclohexyl]carbonyl}-4-fluoro-N-1H-pyrazolo[4,3-b]pyridin-5-yl-D-prolinamide]: 311 nM, 56 nM, 76 nM, 746 nM and 1050 nM.
Regarding `O=C(Nc1ccc2[nH]ncc2n1)[C@H]1C[C@@H](F)CN1C(=O)C1(c2ccc(-c3ccccc3)c(F)c2)CCC(F)(F)CC1` [Example 94], the results for the IC50 in the assay on H3K27Ac, at EP300 and against CREBBP were 123 nM, 109 nM and 305 nM, respectively. In addition, the GI50 is 625 nM with LK2 cells and 586 nM with TE-8 cells.
On to `O=C(Nc1ccc2[nH]ncc2n1)[C@H]1[C@H](O)[C@@H](F)CN1C(=O)C1(c2ccc(OC(F)F)cc2)CCC(F)(F)CC1` [Example 95], for which the half-inhibitory concentration (IC50) came out at 20 nM in the assay on H3K27Ac, 36 nM against EP300 and 51 nM at CREBBP. For the same molecule, the values for the 50% growth inhibitory concentration (GI50) in the assay on LK2 cells and with TE-8 cells were 179 nM and 246 nM, respectively.
With `COCO[C@@H]1CN(C(=O)C2(c3ccc(OC)cc3)CCC(F)(F)CC2)[C@H]1C(=O)Nc1ccc2[nH]ncc2n1` [Example 96, (2R,3R)-1-{[4,4-Difluoro-1-(4-methoxyphenyl)cyclohexyl]carbonyl}-3-(methoxymethoxy)-N-(1H-pyrazolo[4,3-b]pyridin-5-yl)azetidine-2-carboxamide], the IC50 in the assay on H3K27Ac is more than 1000 nM; on EP300, 2470 nM; against CREBBP, 2170 nM. Further, the GI50 in the assay with LK2 cells and in the assay with TE-8 cells was more than 10000 nM throughout.
For the molecule `COc1ccc(C2(C(=O)N3C[C@H](F)C[C@@H]3C(=O)Nc3ccc4[nH]c(C)cc4n3)CCC(F)(F)CC2)cc1` [Example 97, (4R)-1-{[4,4-Difluoro-1-(4-methoxyphenyl)cyclohexyl]carbonyl}-4-fluoro-N-(2-methyl-1H-pyrrolo[3,2-b]pyridin-5-yl)-D-prolinamide], the figures for the IC50 in the assay with H3K27Ac, at EP300 and against CREBBP were 218 nM, 70 nM and 123 nM, respectively. The GI50 with LK2 cells turned out to be 854 nM; with TE-8 cells it was 1180 nM.
In the case of `CC(C)(O)c1ccc(C2(C(=O)N3C[C@H](F)C[C@@H]3C(=O)Nc3ccc4[nH]ncc4n3)CCC(F)(F)CC2)cc1` [Example 98, (4R)-1-({4,4-Difluoro-1-[4-(2-hydroxypropan-2-yl)phenyl]cyclohexyl}carbonyl)-4-fluoro-N-1H-pyrazolo[4,3-b]pyridin-5-yl-D-prolinamide], the results for the IC50 in the assay with H3K27Ac, against EP300 and against CREBBP were 62 nM, 76 nM and 202 nM, respectively. The GI50 with LK2 cells turned out to be 267 nM; in the assay with TE-8 cells it was 331 nM.
The matching figures for `CS(=O)(=O)c1ccc(C2(C(=O)N3C[C@H](F)C[C@@H]3C(=O)Nc3ccc4[nH]ncc4c3C#N)CCC(F)(F)CC2)cc1` [Example 99, (4R)—N-(4-Cyano-1H-indazol-5-yl)-1-({4,4-difluoro-1-[4-(methylsulfonyl)phenyl]cyclohexyl}carbonyl)-4-fluoro-D-prolinamide]: 62 nM, 76 nM, 205 nM, 300 nM and 399 nM.
On to `COc1ccc(C2(C(=O)N3C[C@H](F)C[C@@H]3C(=O)Nc3ccc4[nH]ncc4c3F)CCC(F)(F)CC2)cc1` [Example 100], for which the IC50 in the assay with H3K27Ac came to 243 nM; against EP300 it was 67 nM; against CREBBP, 95 nM. Moreover, the GI50 with LK2 cells came to 660 nM; with TE-8 cells it was 1370 nM.
